For test [1], the system named is MDA-MB-231. The test is described as follows: IC20 of E7389 for the cell line tested (MDA-MB-231). The note with it: Homo sapiens. It is filed as cell-based. From the text:
Transfection conditions for human breast cancer cell lines MDA-MB-231 (ATCC Catalog No. HTB26™) and BT-549 (ATCC Catalog No. HTB122™) were optimized using transfection reagent DharmaFect 1 from Dharmacon. The MDA-MB-231 and BT-549 cell lines have been reported to be Estrogen Receptor (ER) negative, Progesterone Receptor (PR) negative and HER-2 negative (triple negative). As a non-targeting negative control we used Silencer Negative Control #1 siRNA from Applied Biosystems. The siGENOME TOX (siTOX) Transfection Control (Dharmacon), an RNA duplex designed to induce cell death, was used as a positive control for cell proliferation assays. A reverse transfection procedure in which siRNA was first mixed with transfection reagent and then cells were added to the well, was used in all experiments. Cell viability was compared in cells treated with medium, negative control siRNA and siTOX reagent combined with different amount of DharmaFect 1. […]
The whole human genome siRNA library was purchased from Dharmacon. […] Cell viability was determined at 96 hours after transfection by CellTiter-Glo luminescent assay from Promega. […] Plates were mixed for 2 minutes on a horizontal shaker, incubated for 10 minutes and read on an EnVision® multilabel plate reader from PerkinElmer.

Test [2] has as its system BT-549 cells. As to the kind of experiment: IC20 of E7389 for BT-549 cells. It counts as cell-based. The note with it: Homo sapiens.

Counter-ions that a name gives are not always drawn.

One may read the IC20 as the point of the concentration-response curve where the effect stands at 20%. A low value points to an effect from little substance. For `C=C1C[C@@H]2CC[C@@]34C[C@H]5O[C@H]6C(O3)[C@H]3OC(CC[C@@H]3O[C@H]6[C@H]5O4)CC(=O)C[C@@H]3[C@@H](OC)[C@@H](C[C@H](O)CN)O[C@H]3CC3O[C@@H](CCC1O2)C[C@@H](C)C3=C` [E7389, 11,15:18,21:24,28-Triepoxy-7,9-ethano-12,15-methano-9H,15H-furo[3,2-i]furo[2′,3′:5,6]pyrano[4,3-b][1,4]dioxacyclopentacosin-5(4H)-one, 2-[(2S)-3-amino-2-hydroxypropyl]hexacosahydro-3-methoxy-26-methyl-20,27-bis(methylene)-, (2R,3R,3aS,7R,8aS,9S,10aR,11S,12R,13aR,13bS,15S,18S,21S,24S,26R,28R,29aS)-methanesulfonate (salt)], the IC20 in test [1] is 0.75 nM; in test [2], 0.25 nM.

The values above are taken from patent publication US9637795B2, “Methods and compositions for predicting response to eribulin” (Eisai R&D Management Co., Ltd., priority 2011, dated 2017).
